Test results as given in US10869899B2, “Isolated cells and populations comprising same for the treatment of CNS diseases” (Ramot at Tel-Aviv University Ltd., priority 2005, dated 2020).

Tested on: differentiated hBMSc
Assay: Effect of IL-1β and cabergoline on GDNF production and secretion (ELISA)
Type: cell-based, human
Settings: cabergoline 130 pg/ml, IL-1β 100 pg/ml, added 24 hours after initiation of differentiation, 48 hours
Protocol: Astrocyte differentiation: To induce astrocyte differentiation, 1×10^6 cells were cultured in […]. Cells were replaced with pre-differentiation medium for 48 hours (DMEM supplemented with SPN, 2 mM L-glutamine, 20 ng/ml human epidermal growth factor hEGF (R& D, Systems, Minneapolis, Minn.), 20 ng/ml human basic fibroblast growth factor (hbFGF) and N2 supplement (insulin 5 μg/ml, progesterone 20 nM, putrescin 100 μM, selenium 30 nM, transferrin 100 μg/ml). After 48 hours, the pre-differentiation medium was changed to differentiation medium, (DMEM supplemented with SPN, 2 mM L-glutamine, 1 mM dibutyryl cyclic AMP dbcAMP, 0.5 mM isobutylmethylxanthine IBMX (Sigma-Aldrich, St. Louis, Mo., USA), 5 ng/ml human platelet derived growth factor PDGF (peprotech), and 50 ng/ml human neuregulin 1-β1 NRG1-β1-GGF-2). […]
GDNF and BDNF analysis: At the end of the differentiating procedure described above, supernatant was collected from the plate and cells were harvested and counted. The amount of GDNF or BDNF in the cell's lysate and culture supernatants was quantified by using a GDNF or BDNF ImmunoAssay System (Promega) according to the manufacture's protocol. The absorbance at 450 nm was recorded on the Microplate Reader (BioRad Model 550) and the values were used to produce the curve of the GDNF or BDNF standard. […] ELISA results were calculated according to 10^6 cells per plate.

Row | Compound | production and secretion of GDNF by differentiated cells following addition
1 | C=CCN1C[C@H](C(=O)N(CCCN(C)C)C(=O)NCC)C[C@@H]2c3cccc4[nH]cc(c34)C[C@H]21 [cabergoline] | marked enhanced production and secretion of GDNF
2 | IL-1beta: factor known to upregulate GDNF, added to the differentiation medium | marked enhanced production and secretion of GDNF
